# “Also recorded” adds a separate entry of the source. Like-named read-outs stand apart in the source and are kept apart here.
# Tests used:
# UptA [1] = molecular target: T1, UptA (Bacillus subtilis, UniProt O31823); test: Native MS competition of C55-P and phospholipids for UptA binding; settings: 4 µM UptA and 10 µM C55-P, increasing DOPG (up to 20 µM) or DOPE
# Protocol: To investigate whether or not C55-P can outcompete phospholipids in binding to UptA, we incubated solutions containing UptA-DOPG with increasing concentrations of C55-P. Spectra were recorded after aliquots of the solution were equilibrated on ice for 15 min. […] We therefore hypothesised that phospholipids should be unable to outcompete C55-P bound to UptA. To test this hypothesis, we incubated UptA with C55-P and then equilibrated aliquots with an increasing concentration of DOPG. […]
# The chloroform layer containing the total lipids was recovered into a clean glass vial, and the organic solvent was evaporated in a SpeedVac for 16 h. Lipid film was resuspended 200 mM ammonium acetate, 0.05% LDAO (pH 8.0) to ~0.5 mg/mL for the binding experiments.
# Sample preparation for native MS
# Before measurements, the protein was buffer-exchanged into 0.05% LDAO, 200 mM ammonium acetate (“MS buffer”) at the desired pH using a centrifugal buffer exchange device (Micro Bio -Spin 6, Bio-Rad). Stock solutions of lipids were prepared from chloroform/methanol solution by evaporating aliquots of known volume in a SpeedVac. After drying, the lipid films were weighed and resuspended to a final concentration of 0.5 mM in 200 mM ammonium acetate (pH8) and 0.05% LDAO by vertexing. Stock solutions of 0.5 mM amphomycin, aspartocin D, daptomycin and bacitracin, were made in the same buffer. All experiments were repeated three times from newly prepared stock solutions.
# About 3 μL protein aliquot was transferred into a gold-coated borosilicate capillary (Harvard Apparatus) and was mounted on the nano ESI source of a Q-Exactive hybrid quadrupole-Orbitrap mass spectrometer (Thermo Fisher Scientific, Bremen, Germany). The instrument settings were 1.2 kV capillary voltage, S-lens RF 200%, argon UHV pressure 3.3 × 10−10 mbar, the capillary temperature was set to 200 °C, and resolution of the instrument was set to 17,500 at a transie nt time of 64 ms. […] The resulting fragments were detected in the Orbitrap (R = 280,000 @ m/z 200), averaging ~500 transients to maximise the signal-to-noise ratio. […]
# UptA [2] = molecular target: T1, UptA; test: Native MS of phospholipid binding to UptA
# Text: Proteins belonging to the DedA family are a widespread family of transporters and are proposed to flip diverse lipids, including carrier lipids and membrane phospholipids. We therefore probed the interaction of UptA with membrane phospholipids to understand whether the latter could modulate its function. For this purpose, we selected anionic phosphatidylglycerols (PG) and zwitterionic phosphatidylethanolamines (PE), representing the major classes of phospholipid headgroups found in B. subtilis ([41], [42]). We recorded mass spectra of solutions containing 4 µM UptA incubated with 10 µM a15:0-i15:0 PE and 10 µM a15:0-i15:0 PG (a15:0, anteiso-pentadecanoic acid; i15:0, iso-pentadecanoic acid). The fatty acid composition of these lipids closely mimics those of native B. subtilis lipids (see below). The resulting spectra display peaks corresponding to UptA in apo and lipid-bound forms in both cases (Fig. 4 A and B). […] We therefore hypothesize that UptA interacts more favorably with PG than with PE.
# To verify the lipid binding preference of UptA with more native-like lipids, we prepared lipid extracts from B. subtilis membranes (Materials and Methods). We then incubate an aliquot of the resulting crude lipids (SI Appendix, Fig. S8) with UptA. The spectra yielded peaks assigned to UptA in complex with cardiolipins (~1,326 Da) and a range of phospholipids, predominantly 694 Da, 721 Da, 748 Da, and 776 Da species (Fig. 4 D and E). To identify these lipids, we performed tandem MS/MS, isolating the lipid species and subjecting it to collisional activation. […] The fatty acid fragments are mixed populations, predominantly 15:0-15:0, 15:0-17:0, 16:0-16:0, and 16:0-18:1 (SI Appendix, Fig. S9) which are the typical fatty acids from B. subtilis membrane phospholipids ([42]). We therefore conclude that UptA interacts more favorably with the anionic cardiolipins and phosphatidylglycerols than with the zwitterionic phosphatidylethanolamines in the membrane lipid extracts.
# (§1) Detailed experimental procedures are provided in SI Appendix. Briefly, UptA (wild type and mutants) was expressed in E. coli C43(DE3) cells (Lucigen) with GFP fusion on the C-terminus and solubilized from the membrane fraction by n-dodecyl-β-D-maltopyranoside (DDM). After purification by affinity chromatography, the GFP was cleaved by TEV protease and removed, and UptA was further purified by size-exclusion chromatography in a buffer containing 20 mM Tris-HCl (pH 8.0), 200 mM NaCl, 0.02% DDM. Before measurements, proteins were buffer-exchanged into 0.05% LDAO, 200 mM ammonium acetate at the desired pH using a centrifugal buffer exchange device (Micro Bio-Spin 6, Bio-Rad). Stock solutions of lipids were prepared from chloroform/methanol solution by evaporating aliquots of known volume in a SpeedVac. After drying, the lipid films were weighed and resuspended to a final concentration of 0.5 mM in 200 mM ammonium acetate and 0.05% LDAO by vertexing. Stock solutions of 0.5 mM amphomycin, aspartocin D, daptomycin, polymyxin B, polymyxin E, and bacitracin were made in the same buffer. All experiments were repeated three times from newly prepared stock solutions. Native mass spectrometry was performed on a Q-Exactive hybrid quadrupole-Orbitrap mass spectrometer (Thermo Fisher Scientific, Bremen, Germany), and lipid identification was performed on an Orbitrap Eclipse Tribrid mass spectrometer (Thermo). […]
# Lipid extracts from B. Subtilis
# B. subtilis strain 168 (ATCC 23857) was cultivated in […] LB media at 37 °C until OD600 nm 1.2 under aurobic conditions. Cells were harvested by centrifugation at 4,000 g for 20 minutes and resuspended in 20 mM Tris-HCl (pH 8.0), 150 mM NaCl. Cells were lysed by 5-6 passes through a microfluidizer at 20,000 psi. The lysates were clarified by centrifugation at 4,000 g for 10 minutes, and the totoal membrane was pelleted at 120,000 g for 1 h. The membrane pellet was ressupended […]
# MurG = settings: read-out: Kd, MurG/lipid I; cited from earlier work
# Protocol: (§2) We explored the binding affinity of UptA toward C55-P by recording mass spectra for solutions containing 2.5 µM UptA and 0 to 40 µM C55-P in 200 mM ammonium acetate, 0.05% LDAO at pH 8.0. […] Further increase in the concentration of C55-P enhanced the intensity of the UptA:C55-P complex, together with the emergence of additional binding events (Fig. 2A). We deconvoluted the spectra ([34]) to extra ...
# [3] = cited from earlier work
# Text: To this end, we prepared UptA:C55-P mixtures and then equilibrated aliquots with bacitracin and vancomycin. […] Despite the combined cellular pool of C55-PP and C55-P being limited to ~1.5 × 10^5 molecules per cell ([56]), they mediate the transport of glycan-bearing components of the cell wall peptidoglycan, teichoic acid, and capsular polysaccharid ...
# UptA:C55-P complex = test: Native MS of UptA:C55-P complex in the presence of antibiotics; format: binding, Bacillus subtilis; settings: 2.5 µM UptA, 10 µM C55-P, 0 to 100 µM antibiotic, 75 V; mean of three independent replicates
# Protocol: (§3) Amphomycin and derivatives are known to kill bacteria by forming complexes with free C55-P ([46]), however, whether or not this involves a direct interaction with a protein cellular target is not known. We therefore investigated how amphomycin affects the UptA:C55-P complex. We recorded spectra for solutions containing 2.5 µM UptA, 10 µM C55-P and then equilibrated aliquots with increasing concentrations of amphomycin.
# (A) Mass spectra (6+ charge state) for solutions containing 2.5 µM UptA and 10 µM C55-P incubated with 0 to 100 µM amphomycin. (B) Relative intensity of C55-P bound to UptA in the presence of amphomycin and daptomycin. The bar represents the mean of three independent replicates shown as data points and error bars are SD. […] (C) Fraction of C55-P bound to UptA in the presence of cell wall targeting antibiotics. Each sample contains 2.5 µM UptA, 10 µM C55-P and 100 µM of indicated antibiotic, and spectra were acquired using the same instrument settings and collisional activation of 75 V. The bar represents the mean of three independent replicates shown as data points, and the error bar represents SD. […]
# as §1
# UptA [4] = molecular target: T1, UptA; test: Native MS of antibiotic binding to UptA; settings: 2.5 µM UptA, 10 µM C55-P, antibiotic up to 100 µM (polymyxins 100 µM), 0.05% LDAO, 200 mM ammonium acetate, 75 V
# Protocol: We next investigate how UptA and its complex with C55-P interact with a range of cell-wall targeting antibiotics including the lipopeptides daptomycin and amphomycin. […] We investigated whether daptomycin affects C55-P binding to UptA by recording spectra for solutions containing 2.5 µM UptA, 10 µM C55-P, and different concentrations of daptomycin.
# as §3
# The amphiphilic nature of daptomycin and amphomycin raises the possibility that these lipopeptide antibiotics may promiscuously bind to UptA in a nonspecific manner. We probe this possibility by recording spectra for UptA:C55-P solutions in the presence of 100 µM polymyxin B and 100 µM polymyxin E. These polymyxins are membrane-disrupting lipopeptides that target the outer membrane lipopolysaccharides in Gram-negative bacteria ([47]) but without a known affinity for C55-P or UptA.
# To this end, we prepared UptA:C55-P mixtures and then equilibrated aliquots with bacitracin and vancomycin.
# as §1
# [5] = daptomycin ref 45; vancomycin ref 49, 50; cited from earlier work
# MurJ = settings: read-out: Kd, MurJ/lipid II; cited from earlier work
# Protocol: as §2
# [6] = molecular target: the molecule itself; test: native MS; UptA 2.2 µM (E32A 2.5 µM, with 10 µM C55-P) in 200 mM ammonium acetate pH 8.0, 0.05% LDAO; dimer 9+ charge state isolated and dissociated into protomers by HCD (190 V); more dimer at pH 8.0 than at pH 5.0
molecule,measurement,setting,value
CCCCCCCC/C=C\CCCCCCCC(=O)OC[C@H](COP(=O)(O)OCCN)OC(=O)CCCCCCC/C=C\CCCCCCCC [18:1-18:1 PE],displacement of C55-P from UptA by phospholipid (in words),UptA [1],could not efficiently displace C55-P from UptA
CCCCCCCC/C=C\CCCCCCCC(=O)OC[C@H](COP(=O)(O)OCC(O)CO)OC(=O)CCCCCCC/C=C\CCCCCCCC (stereo partly drawn) [18:1-18:1 PG],displacement of C55-P from UptA by phospholipid (in words),UptA [1],C55-P remains bound to UptA even in the presence of excess DOPG (20 µM)
same,"mean relative intensity of UptA in complex with phospholipid, comparison (in words)","UptA [2]; 4 µM UptA with 10 µM lipid (stated for a15:0-i15:0 lipids), mean of three independent replicates","bind to UptA more intensely than 16:0-18:1 PE and 18:1-18:1 PE, respectively"
same,"UptA-lipid complexes formed (stoichiometry, in words)","UptA [2]; 4 µM UptA with 10 µM lipid, native MS",binding of 1 to 2 molecules of DOPG per UptA
CC(=O)N[C@H]1[C@@H](OP(=O)(O)OP(=O)(O)OC/C=C(/C)CC/C=C(/C)CC/C=C(/C)CC/C=C(/C)CC/C=C(/C)CC/C=C(/C)CC/C=C(/C)CC/C=C(\C)CC/C=C(\C)CC/C=C(\C)CCC=C(C)C)O[C@H](CO)[C@@H](O)[C@@H]1O[C@H](C)C(=O)N[C@@H](C)C(=O)N[C@H](CCC(=O)N[C@@H](CCCCN)C(=O)N[C@H](C)C(=O)N[C@H](C)C(=O)O)C(=O)O [lipid I],Kd,MurG,1890 ± 600 nM
bacitracin,complex formation with or sequestration of C55-PP (in words),[3],form complex with C55-PP
same,complex formation with or sequestration of C55-PP (in words),[3]; listed as Bacitracin,sequestration of C55-PP
same,effect of antibiotic on UptA:C55-P complex (in words),UptA:C55-P complex,modestly competes against C55-P binding to UptA
same,binding of antibiotic to UptA (in words),UptA [4],bind to UptA but with very low intensities
daptomycin,complex formation with or sequestration of lipid II (in words),[5],complexing with lipid II
same,effect of antibiotic on UptA:C55-P complex (in words),UptA:C55-P complex,does not directly compete against C55-P binding to the protein; also recorded: modest impact
same,binding of antibiotic to UptA (in words),UptA [4],daptomycin interacts with UptA
lipid II,Kd,MurJ,2900 ± 600 nM
teixobactin,complex formation with or sequestration of C55-PP (in words),[3],form complex with C55-PP
"UptA (undecaprenyl phosphate transporter A), Bacillus subtilis, wild type (natural protein, UniProt O31823 1-198, looked up, formylation of the N-terminal methionine, UptA, DedA family membrane protein of Bacillus subtilis; detailed procedures are in SI Appendix; In equilibrium of monomers and dimers; also called WT; not shown: GFP, C-terminal, cleaved) MGSLISEILTWLTNMGYAGIAIGLMIEIIPSEIVLAYGGYMVSEGTIGFIGAIIAGVIGGTIAQIFIYWIGRYGGRPFLDKYGKYLLIKKHHIDMSENWFQKYGAGVVFSARFIPVVRHAISIPAGIARMPFLKFVVLTVLAIIPWSILFVYLGIQLGSQWDDVENIAGTYTTPIMILAVVVIALYFVIKKRTAIFKR",stoichiometry N,[6],2
